Results on 21 compounds are retold here after the RepoRT retention time repository (doi:10.1016/j.jchromb.2020.122105).

Common to all, as to settings: stereoisomer not certain
Data set [1] can be described thus: RP, Waters CORTECS T3, 100 × 2.1 mm, 2.7 µm, 0.3 mL/min, estimated dead time 0.73 min; A: water + 0.1% formic acid, pH 3; B: methanol + 0.1% formic acid, pH 3; gradient (min/%B) 0/5 5/5 25/100 30/100 30.1/5 35/5.
The nature of data set [2]: RP, Waters CORTECS T3, 100 × 2.1 mm, 2.7 µm, 0.3 mL/min, estimated dead time 0.73 min; A: water + 0.1% formic acid, pH 3; B: methanol + 0.1% formic acid, pH 3; gradient (min/%B) 0/0 5/0 25/100 30/100 30.1/0 35/0.
Data set [3] in a line: RP, Waters CORTECS T3, 100 × 2.1 mm, 2.7 µm, 0.1 mL/min, estimated dead time 2.2 min; A: water + 0.1% formic acid, pH 3; B: methanol + 0.1% formic acid, pH 3; gradient (min/%B) 0/0 1/0 6/5 30/100 35/100 35.1/0 40/0.
Data set [4] in a line: RP, Waters CORTECS T3, 100 × 2.1 mm, 2.7 µm, 0.3 mL/min, estimated dead time 0.73 min; A: water + 0.1% formic acid, pH 3; B: methanol + 0.1% formic acid, pH 3; gradient (min/%B) 0/0 1/0 6/5 30/100 35/100 35.1/0 40/0.
Data set [5] in a line: RP, Waters CORTECS T3, 100 × 2.1 mm, 2.7 µm, 0.3 mL/min, estimated dead time 0.73 min; A: water + 0.1% formic acid, pH 3; B: methanol + 0.1% formic acid, pH 3; gradient (min/%B) 0/5 5/5 25/95 25.1/100 35/100 35.1/5 45/5.
Data set [6] can be described thus: RP, Waters ACQUITY UPLC BEH C18, 100 × 2.1 mm, 1.7 µm, 0.1 mL/min, estimated dead time 2.2 min; A: water + 0.1% formic acid, pH 3; B: methanol + 0.1% formic acid, pH 3; gradient (min/%B) 0/5 5/5 25/100 30/100 30.1/5 35/5.
Data set [7] in a line: RP, Waters CORTECS T3, 100 × 2.1 mm, 2.7 µm, 0.2 mL/min, estimated dead time 1.1 min; A: water + 0.045% formic acid + 0.11% ammonium hydroxide, pH 7; B: methanol; gradient (min/%B) 0/5 5/5 25/95 25.1/100 35/100 35.1/5 45/5.
Data set [8] can be described thus: RP, Waters ACQUITY UPLC BEH C18, 100 × 2.1 mm, 1.7 µm, 0.1 mL/min, estimated dead time 2.2 min; A: water + 0.045% formic acid + 0.11% ammonium hydroxide, pH 7; B: methanol; gradient (min/%B) 0/5 5/5 25/95 25.1/100 35/100 35.1/5 45/5.
The nature of data set [9]: RP, Waters ACQUITY UPLC BEH C18, 100 × 2.1 mm, 1.7 µm, 0.2 mL/min, estimated dead time 1.1 min; A: water + 0.025% formic acid + 20 mM ammonium acetate + 0.055% ammonium hydroxide, pH 7; B: methanol; gradient (min/%B) 0/5 5/5 25/100 30/100 30.1/5 35/5.
Data set [10] can be described thus: RP, Waters CORTECS T3, 100 × 2.1 mm, 2.7 µm, 0.1 mL/min, estimated dead time 2.2 min; A: water + 0.1% formic acid, pH 3; B: methanol + 0.1% formic acid, pH 3; gradient (min/%B) 0/5 5/5 25/95 25.1/100 35/100 35.1/5 45/5.
Data set [11] is described as follows: RP, Waters CORTECS T3, 100 × 2.1 mm, 2.7 µm, 0.25 mL/min, estimated dead time 0.88 min; A: water + 0.1% formic acid, pH 3; B: methanol + 0.1% formic acid, pH 3; gradient (min/%B) 0/5 5/5 25/95 25.1/100 35/100 35.1/5 45/5.
Data set [12] can be described thus: RP, Thermo Scientific Hypercarb, 150 × 2.1 mm, 5 µm, 0.1 mL/min, estimated dead time 3.3 min; A: water + 0.1% formic acid, pH 3; B: methanol + 0.1% formic acid, pH 3; gradient (min/%B) 0/5 5/5 20/100 35/100 35.1/5 45/5.
Data set [13] is described as follows: RP, Waters CORTECS T3, 100 × 2.1 mm, 2.7 µm, 0.2 mL/min, estimated dead time 1.1 min; A: water + 0.1% formic acid, pH 3; B: methanol + 0.1% formic acid, pH 3; gradient (min/%B) 0/0 1/0 6/5 30/100 35/100 35.1/0 40/0.
Data set [14] can be described thus: RP, Waters CORTECS T3, 100 × 2.1 mm, 2.7 µm, 0.15 mL/min, estimated dead time 1.5 min; A: water + 0.1% formic acid, pH 3; B: methanol + 0.1% formic acid, pH 3; gradient (min/%B) 0/0 1/0 6/5 30/100 35/100 35.1/0 40/0.
Data set [15] can be described thus: RP, Waters CORTECS T3, 100 × 2.1 mm, 2.7 µm, 0.25 mL/min, estimated dead time 0.88 min; A: water + 0.1% formic acid, pH 3; B: methanol + 0.1% formic acid, pH 3; gradient (min/%B) 0/0 1/0 6/5 30/100 35/100 35.1/0 40/0.
Data set [16] can be described thus: RP, Waters CORTECS T3, 100 × 2.1 mm, 2.7 µm, 0.2 mL/min, estimated dead time 1.1 min; A: water + 0.1% formic acid, pH 3; B: methanol + 0.1% formic acid, pH 3; gradient (min/%B) 0/0 1/0 6/5 30/100 35/100 35.1/0 40/0. The source holds these as a separate data set.
Data set [17] in a line: RP, Waters ACQUITY UPLC BEH C18, 100 × 2.1 mm, 1.7 µm, 0.2 mL/min, estimated dead time 1.1 min; A: water + 0.1% formic acid, pH 3; B: methanol + 0.1% formic acid, pH 3; gradient (min/%B) 0/5 5/5 25/100 30/100 30.1/5 35/5.

Take `CCCCCCCCC=CCCCCCCCC(=O)OCC(O)CO` (racemic) [1-OLEOYL-RAC-GLYCEROL]: the LC retention time in data set [1] was 24.6 min; in data set [2] it was 24.8 min; in [3], 26.2 min; in data set [4] it was 29 min; in [5], 25.6 min; in [6], 29.3 min. The LC retention time in data set [7] was 26.2 min; in [8], 30.2 min; in data set [9], 26.3 min.

Take `CCCCCCCCCCCCCC(=O)OCC(O)CO` (racemic) [RAC-GLYCEROL 1-MYRISTATE]: the LC retention time is 28.2 min in data set [6], 25.4 min in data set [7] and 29.1 min in data set [8].

With `Nc1ccccc1O` [2-AMINOPHENOL], the LC retention time in [10] was 2.8 min.

On to `COc1cc(C(O)C(=O)O)ccc1O` (stereo unspecified) [3-METHOXY-4-HYDROXYMANDELATE], for which, in data set [11], the LC retention time is 2.78 min.

Turning to `COc1cc(CCN)ccc1O` [3-METHOXYTYRAMINE], the LC retention time in data set [12] is 20.5 min; in data set [7], 4.87 min; in data set [8], 9.22 min.

In the case of `Cn1cnc(=N)c2[nH]cnc21` [3-METHYLADENINE], the LC retention time in [2] is 0.89 min; in data set [13], 1.34 min; in data set [14], 1.78 min; in data set [15], 1.09 min; in data set [12], 24.5 min; in [6] it was 2.69 min. The LC retention time in data set [7] was 3.8 min; in data set [8] it was 2.75 min; in data set [9], 3.62 min.

`Cn1cncc1CCN` [3-METHYLHISTAMINE]: the LC retention time in data set [12] was 4.64 min; in [7], 1.73 min; in data set [8], 3.44 min; in data set [9] it was 1.81 min.

`O=C(O)Cc1c[nH]c2ccc(O)cc12` [5-HYDROXYINDOLEACETATE]: the LC retention time in data set [1] is 8.56 min; in [2] it was 10 min; in [13], 11.5 min; in data set [3] it was 10.1 min; in [14] it was 12.9 min; in [4], 10.1 min. The LC retention time in data set [15] was 10.8 min; in data set [10], 13.4 min; in [12], 30.8 min; in data set [5] it was 8.59 min; in [6] it was 13.3 min.

For the compound `Cc1cnc(=O)[nH]c1N` [5-METHYLCYTOSINE], the LC retention time in [4] was 0.9 min; in [15], 1.06 min; in data set [12], 16.9 min; in data set [6], 2.71 min; in data set [7] it was 1.35 min; in [9], 2.21 min.

With `O=C(O)C(O)C(O)C(O)C(O)COP(=O)(O)O` (stereo unspecified) [6-PHOSPHOGLUCONIC ACID], in data set [11], the LC retention time is 1.08 min.

Take `NCCCCN=C(N)N` [AGMATINE]: the results for the LC retention time in data set [7], in data set [8] and in [9] were 1.58 min, 3.67 min and 1.44 min, respectively.

For the compound `CCCCC(CC)COC(=O)c1ccccc1C(=O)OCC(CC)CCCC` (stereo unspecified) [BIS(2-ETHYLHEXYL)PHTHALATE], the LC retention time in data set [1] was 25.4 min; in [2], 25.5 min; in data set [3], 26.7 min; in [14], 32.3 min; in [4] it was 30 min; in data set [15] it was 30.4 min. The LC retention time is 26.4 min in data set [5], 30 min in [6], 26.7 min in data set [7] and 30.8 min in [8].

As to `NCCc1cnc[nH]1` [HISTAMINE], the LC retention time was 4.61 min in data set [12], 1.54 min in [7], 3.13 min in data set [8] and 1.44 min in data set [9].

As for `NC(CCSSCCC(N)C(=O)O)C(=O)O` (stereo unspecified) [HOMOCYSTINE], the LC retention time in data set [16] was 1.35 min; in [14], 1.78 min; in data set [15], 1.09 min; in data set [12], 14 min; in data set [5] it was 0.9 min; in data set [17], 1.38 min. Also, the LC retention time in [6] is 2.74 min.

For `N[C@@H](Cc1ccccc1)C(=O)O` [L-PHENYLALANINE], the LC retention time was 11.8 min in data set [1]; 12.8 min in data set [2]; 15.3 min in data set [13]; 13.6 min in data set [3]; 16.7 min in [14]; 13.6 min in data set [4]. The LC retention time in data set [15] is 14.4 min; in [10], 17.2 min; in [5] it was 12 min; in data set [6] it was 17.3 min.

`N[C@@H](Cc1ccc(O)cc1)C(=O)O` [L-TYROSINE]: the LC retention time in [12] is 24.8 min; in data set [7], 5.83 min; in data set [8], 10.2 min.

Turning to `CCC=CCC1C(=O)CCC1CC(=O)OC` (stereo unspecified) [METHYL JASMONATE], the LC retention time in data set [14] was 24 min; in data set [10], 23.6 min; in [6] it was 23.2 min; in [7] it was 20.3 min; in data set [8], 23.9 min; in data set [9], 20 min.

In the case of `Cc1ncc(CO)c(CN)c1O` [PYRIDOXAMINE], the LC retention time in [12] is 16.2 min; in data set [7], 1.35 min; in data set [8], 2.75 min; in data set [9], 1.8 min.

Take `c1ccc2ncccc2c1` [QUINOLINE]: the LC retention time is 4.84 min in data set [12], 11.7 min in data set [7] and 16.1 min in data set [8].

Turning to `CC=CC=CC(=O)O` [SORBATE], the LC retention time in data set [10] is 4.88 min.

For `O=C(O)C=Cc1cnc[nH]1` [UROCANATE], the LC retention time in data set [2] was 0.91 min; in data set [14], 1.8 min; in data set [4], 0.9 min; in data set [15] it was 1.06 min; in [17], 1.36 min; in data set [6], 2.71 min. The LC retention time in [9] was 1.39 min.
